Measured values published in patent US20260325533A1, “CDK INHIBITOR COMPOUNDS” (ALEKSIA THERAPEUTICS, INC., priority 2023, published 2026).
pIC50: −log10 of the molar value. Where two headings read alike, the source gives them in different places.

Key:
Assay type in all cases: biochemical
CDK2/CCNE1 = CDK2/CCNE1 (Homo sapiens, UniProt P24941); test: CDK2 homogeneous time-resolved fluorescence (HTRF) kinase assay; settings: CDK2/CCNE
In short: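 3 nM CDK2/CCNE1 was preincubated with compound for 20 min at 23 °C in HEPES buffer (pH not stated), then reacted 60 min with 1 mM ATP and 50 nM ULight-4E-BP1 (Thr37/46) peptide. After EDTA stop, Eu-anti-phospho-4E-BP1 antibody (2 nM) was added for 60 min and TR-FRET read at 665 nm.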

CDK1/CCNB1 = CDK1/CCNB1 (Homo sapiens, UniProt P06493); test: CDK1 homogeneous time-resolved fluorescence (HTRF) kinase assay; settings: CDK1/CCNB
In short: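 CDK1/CCNB1 0.5 nM + cpd, 20 min 23 °C; add 1 mM ATP, 50 nM ULight-4E-BP1 peptide, 60 min 23 °C; stop 10 mM EDTA; 2 nM Eu-Ab, 60 min; HTRF 665 nm. 11-pt half-log, top 10 μM typical; IC50.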

CDK4/CCND3 = CDK4/CCND3 (Homo sapiens, UniProt P11802); test: CDK4 homogeneous time-resolved fluorescence (HTRF) kinase assay; settings: CDK4/CCND
In short: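 Steps: compound plus 1.5 nM CDK4/CCND3, 20 min, 23 °C; add 1 mM ATP and 50 nM ULight-4E-BP1 (Thr37/46) peptide, 60 min; stop with 10 mM EDTA; add 2 nM Eu anti-phospho antibody, 60 min; read 665 nm. IC50 from 11-point half-log series starting 10 μM.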

CDK6/CCND1 = CDK6/CCND1 (Homo sapiens, UniProt Q00534); test: CDK6 homogeneous time-resolved fluorescence (HTRF) kinase assay; settings: CDK6/CCND
In short: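 Enzyme pre-incubated 20 min at 23 °C with compound, then reacted 60 min at 23 °C with 1 mM ATP and 50 nM ULight-4E-BP1 (Thr37/46) peptide; 1 nM enzyme, 1% DMSO. EDTA-stopped, Eu-anti-phospho antibody TR-FRET read (665 nm or 665/615 ratio); 11-point half-log titration from 10 μM gave IC50.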

[1] = x = IC50 <25 nM, read-out: CDK2/CCNE IC50 (<25 nM)
[2] = x = IC50 >250 nM, read-out: CDK1/CCNB IC50 (>250 nM column)
[3] = x = IC50 >250 nM, read-out: CDK4/CCND IC50 (>250 nM column)
[4] = x = IC50 >250 nM, read-out: CDK6/CCND IC50 (>250 nM column)
[5] = x = IC50 25-250 nM, read-out: CDK1/CCNB IC50 (25-250 nM)
[6] = x = IC50 25-250 nM, read-out: CDK4/CCND IC50 (25-250 nM)
[7] = x = IC50 25-250 nM, read-out: CDK6/CCND IC50 (25-250 nM)

CDK6/CCND1, sequence (Q00534 whole entry): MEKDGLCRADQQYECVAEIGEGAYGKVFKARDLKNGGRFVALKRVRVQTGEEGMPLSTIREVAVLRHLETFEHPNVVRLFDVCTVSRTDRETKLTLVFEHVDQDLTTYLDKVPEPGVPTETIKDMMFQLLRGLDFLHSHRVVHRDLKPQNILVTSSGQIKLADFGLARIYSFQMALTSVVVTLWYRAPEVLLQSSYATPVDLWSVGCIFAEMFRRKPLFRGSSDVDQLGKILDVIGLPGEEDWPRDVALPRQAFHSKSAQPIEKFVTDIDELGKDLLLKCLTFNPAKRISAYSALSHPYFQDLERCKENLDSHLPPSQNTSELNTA
CDK6/CCND1, sequence (P24385 whole entry partner): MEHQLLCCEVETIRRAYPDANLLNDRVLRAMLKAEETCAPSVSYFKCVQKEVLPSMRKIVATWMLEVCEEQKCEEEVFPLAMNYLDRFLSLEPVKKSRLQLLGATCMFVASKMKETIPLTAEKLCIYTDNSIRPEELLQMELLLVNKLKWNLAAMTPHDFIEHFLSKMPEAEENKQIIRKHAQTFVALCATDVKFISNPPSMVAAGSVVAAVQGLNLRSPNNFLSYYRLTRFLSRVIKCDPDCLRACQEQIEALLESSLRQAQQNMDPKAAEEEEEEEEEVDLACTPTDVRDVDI
CDK4/CCND3, sequence (P11802 whole entry): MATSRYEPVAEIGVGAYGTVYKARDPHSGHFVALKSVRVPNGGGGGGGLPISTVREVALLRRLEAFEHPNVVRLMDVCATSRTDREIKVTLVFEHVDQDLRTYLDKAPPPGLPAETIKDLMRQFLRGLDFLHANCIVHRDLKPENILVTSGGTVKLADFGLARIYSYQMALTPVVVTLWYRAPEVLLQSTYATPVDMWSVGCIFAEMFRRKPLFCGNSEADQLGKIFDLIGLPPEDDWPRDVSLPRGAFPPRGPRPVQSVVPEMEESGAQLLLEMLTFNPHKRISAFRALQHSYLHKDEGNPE
CDK4/CCND3, sequence (P30281 whole entry partner): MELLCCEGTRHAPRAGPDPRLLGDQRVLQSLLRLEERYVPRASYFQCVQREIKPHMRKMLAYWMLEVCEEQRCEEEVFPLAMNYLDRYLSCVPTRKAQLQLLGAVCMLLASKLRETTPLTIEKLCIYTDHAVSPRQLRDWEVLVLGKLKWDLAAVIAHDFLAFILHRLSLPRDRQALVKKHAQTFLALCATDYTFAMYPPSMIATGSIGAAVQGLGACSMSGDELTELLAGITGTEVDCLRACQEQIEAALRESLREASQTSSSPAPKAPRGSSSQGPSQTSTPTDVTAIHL
CDK1/CCNB1, sequence (P06493 whole entry): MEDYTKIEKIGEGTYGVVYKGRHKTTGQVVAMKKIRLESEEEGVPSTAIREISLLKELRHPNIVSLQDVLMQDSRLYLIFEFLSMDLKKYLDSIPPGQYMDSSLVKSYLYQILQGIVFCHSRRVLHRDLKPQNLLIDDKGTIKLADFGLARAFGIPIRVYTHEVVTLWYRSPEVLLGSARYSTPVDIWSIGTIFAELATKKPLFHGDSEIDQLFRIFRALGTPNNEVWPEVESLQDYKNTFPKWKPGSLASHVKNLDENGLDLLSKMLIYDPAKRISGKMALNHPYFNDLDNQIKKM
CDK1/CCNB1, sequence (P14635 whole entry partner): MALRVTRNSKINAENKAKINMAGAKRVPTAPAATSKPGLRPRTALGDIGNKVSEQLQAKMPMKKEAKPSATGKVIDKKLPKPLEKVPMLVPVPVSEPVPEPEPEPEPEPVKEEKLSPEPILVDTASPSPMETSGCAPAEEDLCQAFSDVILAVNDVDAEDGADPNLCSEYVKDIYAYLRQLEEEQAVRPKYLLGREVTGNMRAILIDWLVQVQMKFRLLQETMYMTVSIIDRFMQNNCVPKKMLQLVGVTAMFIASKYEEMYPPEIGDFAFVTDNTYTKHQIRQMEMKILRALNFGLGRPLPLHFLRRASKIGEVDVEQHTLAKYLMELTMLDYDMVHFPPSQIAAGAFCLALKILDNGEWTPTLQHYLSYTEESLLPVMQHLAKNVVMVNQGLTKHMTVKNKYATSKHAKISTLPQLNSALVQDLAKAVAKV

| pIC50 (CDK2/CCNE1; [1]) | pIC50 (CDK1/CCNB1; [2]) | pIC50 (CDK4/CCND3; [3]) | pIC50 (CDK6/CCND1; [4]) | pIC50 (CDK1/CCNB1; [5]) | pIC50 (CDK2/CCNE1; x = IC50 25-250 nM, read-out: CDK2/CCNE IC50 (25-250 nM)) | pIC50 (CDK4/CCND3; [6]) | pIC50 (CDK6/CCND1; [7]) | Structure (SMILES) |
| --- | --- | --- | --- | --- | --- | --- | --- | --- |
| > 7.60 | < 6.60 | < 6.60 | < 6.60 | – | – | – | – | CC1(C)C(=O)Nc2cc(C#Cc3nccc4cnc(Nc5ccc(S(C)(=O)=O)cc5Cl)cc34)ccc21 [Ex 423, 6-((7-((2-chloro-4-(methylsulfonyl)phenyl)amino)-2,6-naphthyridin-1-yl)ethynyl)-3,3-dimethylindolin-2-one] |
| > 7.60 | – | < 6.60 | < 6.60 | 6.60 to 7.60 | – | – | – | Cc1cc(S(C)(=O)=O)ccc1Nc1cc2c(C#Cc3ccc4c(c3)NC(=O)C4(C)C)nccc2cn1 [Ex 424, 3,3-dimethyl-6-((7-((2-methyl-4-(methylsulfonyl)phenyl)amino)-2,6-naphthyridin-1-yl)ethynyl)indolin-2-one] |
| – | < 6.60 | < 6.60 | < 6.60 | – | 6.60 to 7.60 | – | – | CC1(C)C(=O)Nc2cc(C#Cc3nccc4cnc(Nc5ccc(S(C)(=O)=O)nc5)cc34)ccc21 [Ex 425, 3,3-dimethyl-6-((7-((6-(methylsulfonyl)pyridin-3-yl)amino)-2,6-naphthyridin-1-yl)ethynyl)indolin-2-one] |
| > 7.60 | < 6.60 | < 6.60 | < 6.60 | – | – | – | – | CCC1(CC)C(=O)Nc2cc(C#Cc3nccc4cnc(Nc5ccc(S(=O)(=O)C(C)C)cc5)cc34)ccc21 [Ex 429, 3,3-diethyl-6-((7-((4-(isopropylsulfonyl)phenyl)amino)-2,6-naphthyridin-1-yl)ethynyl)indolin-2-one] |
| > 7.60 | < 6.60 | < 6.60 | < 6.60 | – | – | – | – | CCC1(CC)C(=O)Nc2cc(C#Cc3nccc4cnc(Nc5ccc(S(=O)(=O)CC)cc5)cc34)ccc21 [Ex 430, 3,3-diethyl-6-((7-((4-(ethylsulfonyl)phenyl)amino)-2,6-naphthyridin-1-yl)ethynyl)indolin-2-one] |
| > 7.60 | – | – | – | 6.60 to 7.60 | – | 6.60 to 7.60 | 6.60 to 7.60 | CN1CCC(NS(=O)(=O)c2ccc(Nc3cc4c(C#Cc5cccnc5N)nccc4cn3)cc2)CC1 [Ex 432, 4-((5-((2-aminopyridin-3-yl)ethynyl)-2,6-naphthyridin-3-yl)amino)-N-(1-methylpiperidin-4-yl)benzenesulfonamide] |
| > 7.60 | – | – | – | 6.60 to 7.60 | – | 6.60 to 7.60 | 6.60 to 7.60 | Nc1ncccc1C#Cc1nccc2cnc(Nc3ccc(S(=O)(=O)NC4CCNCC4)cc3)cc12 [Ex 433, 4-((5-((2-aminopyridin-3-yl)ethynyl)-2,6-naphthyridin-3-yl)amino)-N-(piperidin-4-yl)benzenesulfonamide] |
| > 7.60 | < 6.60 | < 6.60 | < 6.60 | – | – | – | – | Nc1ncccc1C#Cc1nccc2cnc(Nc3ccc(S(=O)(=O)NC4CCOCC4)cc3)cc12 [Ex 434, 4-((5-((2-aminopyridin-3-yl)ethynyl)-2,6-naphthyridin-3-yl)amino)-N-(tetrahydro-2H-pyran-4-yl)benzenesulfonamide] |
| > 7.60 | – | < 6.60 | < 6.60 | 6.60 to 7.60 | – | – | – | Nc1ncccc1C#Cc1nccc2cnc(Nc3ccc(S(=O)(=O)NC4CC4)cc3)cc12 [Ex 435, 4-((5-((2-aminopyridin-3-yl)ethynyl)-2,6-naphthyridin-3-yl)amino)-N-cyclopropylbenzenesulfonamide] |
| > 7.60 | – | < 6.60 | < 6.60 | 6.60 to 7.60 | – | – | – | CC1(C)C(=O)Nc2cc(C#Cc3nccc4cnc(Nc5ccc(S(C)(=O)=O)cn5)cc34)ccc21 [Ex 439, 3,3-dimethyl-6-((7-((5-(methylsulfonyl)pyridin-2-yl)amino)-2,6-naphthyridin-1-yl)ethynyl)indolin-2-one] |
| > 7.60 | < 6.60 | < 6.60 | < 6.60 | – | – | – | – | COc1cc(S(C)(=O)=O)ccc1Nc1cc2c(C#Cc3ccc4c(c3)NC(=O)C4(C)C)nccc2cn1 [Ex 440, 6-((7-((2-methoxy-4-(methylsulfonyl)phenyl)amino)-2,6-naphthyridin-1-yl)ethynyl)-3,3-dimethylindolin-2-one] |
